# Tests used:
# Ba/F3_KRAS^G12D cells = Ba/F3_KRAS^G12D cells (Homo sapiens, UniProt P01116, G12D, cells depend on it); assay: Ba/F3 KRAS^G12D cell proliferation assay (cell-titer Glo); assay type: cell-based; details: cell growth inhibition, treated with the compounds for 3 days, read-out: BaF3_KRAS^G12D IC50
# [1] = target: recombinant human KRAS^G12D protein (Homo sapiens, UniProt P01116, G12D); assay: Temperature-dependent Fluorescence (TdF) KRAS^G12D protein binding assay; details: 6 μM KRAS^G12D Protein, 10 μM compound, Sypro Orange; Kd calculated from fluorescent shift
# How it was run: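 Sypro Orange thermal-shift assay, heating from 30 to 95 °C with readings every 0.4 °C (ex 470/em 570 nm). Binding is gauged as ΔTm with versus without compound. Kd is calculated from the degree of the unfolding-temperature shift.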
# Chain of recombinant human KRAS^G12D protein (P01116 1-188 isoform P01116-2 G12D): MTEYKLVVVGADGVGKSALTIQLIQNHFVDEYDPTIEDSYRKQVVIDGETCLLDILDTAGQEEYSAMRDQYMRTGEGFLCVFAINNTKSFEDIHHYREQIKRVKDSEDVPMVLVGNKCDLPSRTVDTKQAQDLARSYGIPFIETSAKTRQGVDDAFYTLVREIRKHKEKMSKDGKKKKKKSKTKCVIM
# Chain of Ba/F3_KRAS^G12D cells (P01116 whole entry G12D): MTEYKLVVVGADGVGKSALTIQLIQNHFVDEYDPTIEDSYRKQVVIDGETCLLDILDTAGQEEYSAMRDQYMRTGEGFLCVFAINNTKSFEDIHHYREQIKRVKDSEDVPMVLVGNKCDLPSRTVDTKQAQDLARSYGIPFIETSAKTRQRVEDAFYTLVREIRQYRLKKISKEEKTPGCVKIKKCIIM
Structure (SMILES),GI50 (Ba/F3_KRAS^G12D cells) [µM],Kd [1] [µM]
C#Cc1c(F)ccc2cc(O)cc(-c3nc(OC(C)C)c4c(N5CC6CCC(C5)N6)nc(OC[C@@]56CCCN5C[C@H](F)C6)nc4c3F)c12 [Compound 171],< 0.5,≤ 0.5
Clc1cc2c(N3CCNCC3)nc(OCC34CCCN3CCC4)nc2nc1-c1cccc2ccccc12 [Compound 3],> 5,> 5
CN1CCC[C@H]1Cn1c(=O)nc(N2CC3CCC(C2)N3)c2cc(F)c(-c3cc(O)cc4ccccc34)nc21 [Compound 39],> 5,> 5
Fc1c(-c2cccc3cccc(Cl)c23)ncc2c(OCC34CCCN3CCC4)cc(N3CCNCC3)nc12 [Compound 69],0.5 to 5,> 5
CN1CCC[C@H]1Cn1c(=O)nc(N2CC3CCC(C2)N3)c2cc(F)c(-c3cc(O)cc4cccc(Cl)c34)nc21 [Compound 41],> 5,> 5
CCc1cccc2cc(O)cc(-c3cc4nc(OC[C@@]56CCCN5C[C@H](F)C6)nc(N5CC6CCC(C5)N6)c4c(C)n3)c12 [Compound 121],0.5 to 5,≤ 0.5
Nc1cccc(F)c1-c1nc2cc(OCC34CCCN3CCC4)nc(N3CC4CCC(C3)N4)c2cc1Cl [Compound 37],> 5,> 5
Cc1nc(-c2cc(O)cc3ccc(F)c(Cl)c23)c(F)c2nc(OC[C@@]34CCCN3C[C@H](F)C4)nc(N3CC4CCC(C3)N4)c12 [Compound 126],< 0.5,≤ 0.5
Cc1nc(-c2cc(C(F)F)cc3cccc(Cl)c23)c(F)c2nc(OC[C@@]34CCCN3C[C@H](F)C4)nc(N3CC4CCC(C3)N4)c12 [Compound 116],0.5 to 5,> 5
CN1CCC[C@H]1COc1nc(N2CC3CCC(C2)N3)c2[nH]c(=O)c(-c3cc(O)cc4ccccc34)cc2n1 [Compound 92],> 5,0.5 to 5
Oc1cc(-c2ncc3c(N4CC5CCC(C4)N5)nc(OC[C@@]45CCCN4C[C@H](F)C5)c(Cl)c3n2)c2c(Cl)c(F)ccc2c1 [Compound 75],> 5,≤ 0.5
N#Cc1cccc2cc(O)cc(-c3ncc4c(N5CC6CCC(C5)N6)nc(OCC56CCCN5CCC6)nc4c3F)c12 [Compound 47],> 5,≤ 0.5
CCc1cccc2cc(O)cc(-c3nc(CC)c4c(N5CC6CCC(C5)N6)nc(OC[C@@]56CCCN5C[C@H](F)C6)nc4c3F)c12 [Compound 118],< 0.5,≤ 0.5
CN1CCC[C@H]1Cn1c(=O)nc(N2C[C@H]3CC[C@@H](C2)N3)c2cc(F)c(-c3cccc4cccc(Cl)c34)nc21 [Compound 45],> 5,> 5
CCc1c(F)ccc2cc(O)cc(-c3nc(Cl)c4c(N5CC6CCC(C5)N6)nc(OC[C@@]56CCCN5C[C@H](F)C6)nc4c3F)c12 [Compound 138],< 0.5,≤ 0.5
Oc1cc(-c2ncc3c(N4CC5CCC(C4)N5)nc(OCC45CCCN4CCC5)nc3c2F)c2ccccc2c1 [Compound 12],0.5 to 5,≤ 0.5

Structure (SMILES),GI50 (Ba/F3_KRAS^G12D cells) [µM],Kd [1] [µM]
Clc1cccc2cccc(-c3ncc4c(N5CCNCC5)nc(OCC56CCCN5CCC6)cc4n3)c12 [Compound 48],0.5 to 5,> 5
Cc1nc(-c2cccc3cccc(CCC#N)c23)c(F)c2nc(OC[C@@]34CCCN3C[C@H](F)C4)nc(N3CC4CCC(C3)N4)c12 [Compound 123],0.5 to 5,> 5
Oc1cc(-c2cc3nc(OC[C@@]45CCCN4C[C@H](F)C5)nc(N4CC5CCC(C4)N5)c3nn2)c2ccccc2c1 [Compound 84],0.5 to 5,0.5 to 5
Cc1nc(-c2cc(O)cc3cccc(CCC#N)c23)c(F)c2nc(OC[C@@]34CCCN3C[C@H](F)C4)nc(N3CC4CCC(C3)N4)c12 [Compound 119],> 5,0.5 to 5
Nc1cccc(F)c1-c1nc2nc(OCC34CCCN3CCC4)nc(N3CC4CCC(C3)N4)c2cc1Cl [Compound 11],> 5,> 5
Oc1cc(-c2ncc3c(N4CC5CCC(C4)N5)nc(OCC45CCCN4CCC5)cc3n2)c2c(Cl)cccc2c1 [Compound 51],> 5,> 5
C#Cc1c(F)ccc2cc(O)cc(-c3nc(OCC)c4c(N5CC6CCC(C5)N6)nc(OC[C@@]56CCCN5C[C@H](F)C6)nc4c3F)c12 [Compound 141],< 0.5,≤ 0.5
C[C@H]1CNCCN1c1nc(OCCN(C)C)c(-c2cccnc2C2CC2)c2nc(-c3ccccc3F)c(F)cc12 [Compound 1],0.5 to 5,> 5
Fc1c(-c2cccc3cccc(Cl)c23)nc(OCC23CCCN2CCC3)c2ccc(N3CCNCC3)nc12 [Compound 31],0.5 to 5,> 5
CN1CCC[C@H]1COc1nc(N2CC3CCC(C2)N3)c2cc(F)c(-c3cccc4cccc(Cl)c34)nc2n1 [Compound 8],0.5 to 5,> 5
CN(C)CCOc1cc2nc(-c3ccccc3F)c(F)cc2c(N2C3CCC2CNC3)n1 [Compound 49],0.5 to 5,> 5
CCc1cccc2cc(O)cc(-c3nc(C)c4c(N5CC6CCC(C5)N6)nc(OC[C@@]56CCCN5C[C@H](F)C6)nc4c3C)c12 [Compound 117],< 0.5,≤ 0.5
Cc1nc(-c2cc(O)cc3ccccc23)c(F)c2nc(OC[C@@]34CCCN3C[C@H](F)C4)nc(N3CC4CCC(C3)N4)c12 [Compound 81],< 0.5,≤ 0.5
Cc1nc(-c2cc(O)cc3cccc(C(F)(F)F)c23)c(F)c2nc(OC[C@@]34CCCN3C[C@H](F)C4)nc(N3CC4CCC(C3)N4)c12 [Compound 106],< 0.5,≤ 0.5
Oc1cc(-c2ncc3c(C4CCNCC4)nc(OCC45CCCN4CCC5)nc3c2F)c2c(Cl)cccc2c1 [Compound 55],> 5,> 5
COc1cc(-c2cc3nc(OC[C@@H]4CCCN4C)nc(N4CC5CCC(C4)N5)c3nc2OC)c2ccccc2c1 [Compound 86],0.5 to 5,> 5

# Reference: patent publication US20230357233A1, “HETEROARYL COMPOUNDS, PREPARATION METHODS AND USES THEREOF” (INVENTISBIO CO., LTD., priority 2020, published 2023)
